Here are results for 15 molecules from patent publication US9969767B2, “Oxolupene derivatives” (priority 2014, dated 2018).

The subject of this assay is recombinant NL4-3 virus (Renilla luciferase in nef, Gag P373S). Briefly: HIV Cell Culture Assay (luciferase reporter virus in MT-2 cells). It is filed as cell-based. Particulars: NL43. As to the method: MT-2 cells and 293T cells were obtained from the NIH AIDS Research and Reference Reagent Program. MT-2 cells were propagated in RPMI 1640 media supplemented with 10% heat inactivated fetal bovine serum, […]. The 293T cells were propagated in DMEM media supplemented with 10% heat inactivated fetal bovine serum (FBS), 100 units/mL penicillin G and 100 μg/mL streptomycin. The proviral DNA clone of NL4-3 was obtained from the NIH AIDS Research and Reference Reagent Program. A recombinant NL4-3 virus, in which a section of the nef gene from NL4-3 was replaced with the Renilla luciferase gene, was used as a reference virus. In addition, residue Gag P373 was converted to P373S. Briefly, the recombinant virus was prepared by transfection of the altered proviral clone of NL4-3. Transfections were performed in 293T cells using LipofectAMINE PLUS from Invitrogen (Carlsbad, Calif.), according to manufacturer's instruction. The virus was titered in MT-2 cells using luciferase enzyme activity as a marker. Luciferase was quantitated using the Dual Luciferase kit from Promega (Madison, Wis.), with modifications to the manufacturer's protocol. The diluted Passive Lysis solution was pre-mixed with the re-suspended Luciferase Assay Reagent and the re-suspended Stop & Glo Substrate (2:1:1 ratio). Fifty (50) μL of the mixture was added to each aspirated well on assay plates and luciferase activity was measured immediately on a Wallac TriLux (Perkin-Elmer). Antiviral activities of inhibitors toward the recombinant virus were quantified by measuring luciferase activity in cells infected for 4-5 days with NLRluc recombinants in the presence serial dilutions of the inhibitor.
(In general: Reporter assays use an easily measured gene product as a stand-in for the process of interest.)
Usually EC50 stands for the concentration at which the effect is half-maximal. On to `CC(C)C1=C2[C@H]3CC[C@@H]4[C@@]5(C)CC=C(C6=CCC(C(=O)O)CC6)C(C)(C)[C@@H]5CC[C@@]4(C)[C@]3(C)CC[C@@]2(C(=O)NCCN2CCOCC2)CC1=O` (stereo partly drawn) [Example 1, 4-((3aR,5aR,5bR,7aR,11aS,11bR,13aS)-1-isopropyl-5a,5b,8,8,11a-pentamethyl-3a-((2-morpholinoethyl)carbamoyl)-2-oxo-3,3a,4,5,5a,5b,6,7,7a,8,11,11a,11b,12,13,13a-hexadecahydro-2H-cyclopenta[a]chrysen-9-yl)cyclohex-3-enecarboxylic acid], for which the 50% effective concentration (EC50) is 1.93 nM.

Take `CC(C)C1=C2[C@H]3CC[C@@H]4[C@@]5(C)CC=C(C6=CCC(C(=O)O)CC6)C(C)(C)[C@@H]5CC[C@@]4(C)[C@]3(C)CC[C@@]2(C(=O)NCCN2CCS(=O)(=O)CC2)CC1=O` (stereo partly drawn) [Example 2, 4-((3aR,5aR,5bR,7aR,11aS,11bR,13aS)-3a((2-(1,1-dioxidothiomorpholino)ethyl)carbamoyl)-1-isopropyl-5a,5b,8,8,11a-pentamethyl-2-oxo-3,3a,4,5,5a,5b,6,7,7a,8,11,11a,11b,12,13,13a-hexadecahydro-2H-cyclopenta[a]chrysen-9-yl)cyclohex-3-enecarboxylic acid]: the concentration giving a half-maximal response (EC50) was less than 100 nM. On to `CC(C)C1=C2[C@H]3CC[C@@H]4[C@@]5(C)CC=C(c6ccc(C(=O)O)cc6)C(C)(C)[C@@H]5CC[C@@]4(C)[C@]3(C)CC[C@@]2(C(=O)O)CC1=O` [Example 3, (3aR,5aR,5bR,7aR,11aS,11bR,13aS)-9-(4-carboxyphenyl)-1-isopropyl-5a,5b,8,8,11a-pentamethyl-2-oxo-3,3a,4,5,5a,5b,6,7,7a,8,11,11a,11b,12,13,13a-hexadecahydro-2H-cyclopenta[a]chrysene-3a-carboxylic acid], for which the concentration for a half-maximal effect (EC50) was less than 100 nM. `CC(C)C1=C2[C@H]3CC[C@@H]4[C@@]5(C)CC=C(C6=CCC(C(=O)O)CC6)C(C)(C)[C@@H]5CC[C@@]4(C)[C@]3(C)CC[C@@]2(C(=O)O)CC1=O` (stereo partly drawn) [Example 4, (3aR,5aR,5bR,7aR,11aS,11bR,13aS)-9-(4-carboxycyclohex-1-en-1-yl)-1-isopropyl-5a,5b,8,8,11a-pentamethyl-2-oxo-3,3a,4,5,5a,5b,6,7,7a,8,11,11a,11b,12,13,13a-hexadecahydro-2H-cyclopenta[a]chrysene-3a-carboxylic acid]: the EC50 is less than 100 nM. In the case of `CC(C)C1=C2[C@H]3CC[C@@H]4[C@@]5(C)CC=C(C6=CC[C@](CF)(C(=O)O)CC6)C(C)(C)[C@@H]5CC[C@@]4(C)[C@]3(C)CC[C@@]2(C(=O)O)CC1=O` [Example 5, (3aR,5aR,5bR,7aR,11aS,11bR,13aS)-9-((S)-4-carboxy-4-(fluoromethyl)cyclohex-1-en-1-yl)-1-isopropyl-5a,5b,8,8,11a-pentamethyl-2-oxo-3,3a,4,5,5a,5b,6,7,7a,8,11,11a,11b,12,13,13a-hexadecahydro-2H-cyclopenta[a]chrysene-3a-carboxylic acid], the EC50 was less than 100 nM. The value for `CC(C)C1=C2[C@H]3CC[C@@H]4[C@@]5(C)CC=C(C6=CCC(C(=O)O)CC6)C(C)(C)[C@@H]5CC[C@@]4(C)[C@]3(C)CC[C@@]2(NCCN2CCS(=O)(=O)CC2)CC1=O` (stereo partly drawn) [Example 6, 4-((3aR,5aR,5bR,7aR,11aS,11bR,13aS)-3a-((2-(1,1-dioxidothiomorpholino)ethyl)amino)-1-isopropyl-5a,5b,8,8,11a-pentamethyl-2-oxo-3,3a,4,5,5a,5b,6,7,7a,8,11,11a,11b,12,13,13a-hexadecahydro-2H-cyclopenta[a]chrysen-9-yl)cyclohex-3-enecarboxylic acid] was less than 100 nM; that for `CC(C)C1=C2[C@H]3CC[C@@H]4[C@@]5(C)CC=C(C6=CCC(C(=O)O)CC6)C(C)(C)[C@@H]5CC[C@@]4(C)[C@]3(C)CC[C@@]2(N)CC1=O` (stereo partly drawn) [Example 7, 4-((3aR,5aR,5bR,7aR,11aS,11bR,13aS)-3a-amino-1-isopropyl-5a,5b,8,8,11a-pentamethyl-2-oxo-3,3a,4,5,5a,5b,6,7,7a,8,11,11a,11b,12,13,13a-hexadecahydro-2H-cyclopenta[a]chrysen-9-yl)cyclohex-3-enecarboxylic acid] was 0.973 nM; that for `CC(C)C1=C2[C@H]3CC[C@@H]4[C@@]5(C)CC=C(C6=CC[C@](CF)(C(=O)O)CC6)C(C)(C)[C@@H]5CC[C@@]4(C)[C@]3(C)CC[C@@]2(N)CC1=O` [Example 8, (S)-4-((3aR,5aR,5bR,7aR,11aS,11bR,13aS)-3a-amino-1-isopropyl-5a,5b,8,8,11a-pentamethyl-2-oxo-3,3a,4,5,5a,5b,6,7,7a,8,11,11a,11b,12,13,13a-hexadecahydro-2H-cyclopenta[a]chrysen-9-yl)-1-(fluoromethyl)cyclohex-3-enecarboxylic acid] was less than 100 nM. In the case of `CC(C)C1=C2[C@H]3CC[C@@H]4[C@@]5(C)CC=C(C6=CC[C@](CF)(C(=O)O)CC6)C(C)(C)[C@@H]5CC[C@@]4(C)[C@]3(C)CC[C@@]2(NCCN2CCS(=O)(=O)CC2)CC1=O` [Example 9, (S)-4-((3aR,5aR,5bR,7aR,11aS,11bR,13aS)-3a-((2-(1,1-dioxidothiomorpholino)ethyl)amino)-1-isopropyl-5a,5b,8,8,11a-pentamethyl-2-oxo-3,3a,4,5,5a,5b,6,7,7a,8,11,11a,11b,12,13,13a-hexadecahydro-2H-cyclopenta[a]chrysen-9-yl)-1-(fluoromethyl)cyclohex-3-enecarboxylic acid], the EC50 is less than 100 nM. Regarding `CC(C)C1=C2[C@H]3CC[C@@H]4[C@@]5(C)CC=C(C6=CC[C@](CF)(C(=O)O)CC6)C(C)(C)[C@@H]5CC[C@@]4(C)[C@]3(C)CC[C@@]2(N(CCN2CCS(=O)(=O)CC2)CCN2CCS(=O)(=O)CC2)CC1=O` [Example 10, (S)-4-((3aR,5aR,5bR,7aR,11aS,11bR,13aS)-3a-(bis(2-(1,1-dioxidothiomorpholino)ethyl)amino)-1-isopropyl-5a,5b,8,8,11a-pentamethyl-2-oxo-3,3a,4,5,5a,5b,6,7,7a,8,11,11a,11b,12,13,13a-hexadecahydro-2H-cyclopenta[a]chrysen-9-yl)-1-(fluoromethyl)cyclohex-3-enecarboxylic acid], the concentration for a half-maximal effect (EC50) was less than 100 nM. Regarding `CC(C)C1=C2[C@H]3CC[C@@H]4[C@@]5(C)CC=C(C6=CC[C@](CF)(C(=O)O)CC6)C(C)(C)[C@@H]5CC[C@@]4(C)[C@]3(C)CC[C@@]2(NCCN2CCC(S(C)(=O)=O)CC2)CC1=O` [Example 11, (S)-1-(fluoromethyl)-4-((3aR,5aR,5bR,7aR,11aS,11bR,13aS)-1-isopropyl-5a,5b,8,8,11a-pentamethyl-3a-((2-(4-(methylsulfonyl)piperidin-1-yl)ethyl)amino)-2-oxo-3,3a,4,5,5a,5b,6,7,7a,8,11,11a,11b,12,13,13a-hexadecahydro-2H-cyclopenta[a]chrysen-9-yl)cyclohex-3-enecarboxylic acid], the half-maximal effective concentration (EC50) is less than 100 nM. The value for `CC(C)C1=C2[C@H]3CC[C@@H]4[C@@]5(C)CC=C(C6=CC[C@](CF)(C(=O)O)CC6)C(C)(C)[C@@H]5CC[C@@]4(C)[C@]3(C)CC[C@@]2(NCC[N+]2(CCN3CCC(S(C)(=O)=O)CC3)CCC(S(C)(=O)=O)CC2)CC1=O` (stereo partly drawn) [Example 12, 1-(2-(((3aR,5aR,5bR,7aR,11aS,11bR,13aS)-9-((S)-4-carboxy-4-(fluoromethyl)cyclohex-1-en-1-yl)-1-isopropyl-5a,5b,8,8,11a-pentamethyl-2-oxo-3,3a,4,5,5a,5b,6,7,7a,8,11,11a,11b,12,13,13a-hexadecahydro-2H-cyclopenta[a]chrysen-3a-yl)amino)ethyl)-4-(methylsulfonyl)-1-(2-(4-(methylsulfonyl)piperidin-1-yl)ethyl)piperidin-1-ium] was less than 100 nM. The value for `CC(C)C1=C2[C@H]3CC[C@@H]4[C@@]5(C)CC=C(C6=CC[C@](CF)(C(=O)O)CC6)C(C)(C)[C@@H]5CC[C@@]4(C)[C@]3(C)CC[C@@]2(CNCCCN2CCS(=O)(=O)CC2)CC1=O` [Example 13] was less than 100 nM; that for `CC(C)C1=C2[C@H]3CC[C@@H]4[C@@]5(C)CC=C(c6ccc(C(=O)O)cc6)C(C)(C)[C@@H]5CC[C@@]4(C)[C@]3(C)CC[C@@]2(C(O)CNCCN(C)C)CC1=O` (stereo partly drawn) [Example 14, 4-((3aR,5aR,5bR,7aR,11aS,11bR,13aS)-3a-(2-((2-(dimethylamino)ethyl)amino)-1-hydroxyethyl)-1-isopropyl-5a,5b,8,8,11a-pentamethyl-2-oxo-3,3a,4,5,5a,5b,6,7,7a,8,11,11a,11b,12,13,13a-hexadecahydro-2H-cyclopenta[a]chrysen-9-yl)benzoic acid] was 5.36 nM.

Regarding `CC(C)C1=C2[C@H]3CC[C@@H]4[C@@]5(C)CC=C(C6=CCC(C(=O)O)CC6)C(C)(C)[C@@H]5CC[C@@]4(C)[C@]3(C)CC[C@@]2(C(O)CN(CCN(C)C)Cc2ccc(Cl)cc2)CC1=O` (stereo partly drawn) [Example 15, 4-((3aR,5aR,5bR,7aR,11aS,11bR,13aS)-3a-(2-((4-chlorobenzyl)(2-(dimethylamino)ethyl)amino)-1-hydroxyethyl)-1-isopropyl-5a,5b,8,8,11a-pentamethyl-2-oxo-3,3a,4,5,5a,5b,6,7,7a,8,11,11a,11b,12,13,13a-hexadecahydro-2H-cyclopenta[a]chrysen-9-yl)cyclohex-3-enecarboxylic acid], the half-maximal effective concentration (EC50) is less than 100 nM.
